This is an account of results in patent publication US11401270B2, “Alcoxyamino derivatives for treating pain and pain related conditions” (ESTEVE PHARMACEUTICALS, S.A., priority 2017, dated 2022).

Test [1] addresses Human norepinephrine transporter (NET) (Homo sapiens (Human), UniProt P23975). Kind of test: Binding Assay to Human Norepinephrine Transporter (NET). The conditions noted are these: Table 2, dual compounds; human NET enriched membranes, 5 nM [3H]-Nisoxetin; read-out: Ki(nM) NET Hum. The method, then:
Binding Assay to Human Norepinephrine Transporter (NET).
Human norepinephrine transporter (NET) enriched membranes (5 μg) were incubated with 5 nM of radiolabeled [3H]-Nisoxetin in assay buffer containing 50 mM Tris-HCl, 120 mM NaCl, 5 mM KCl, pH 7.4.
NSB (non specific binding) was measured by adding 10 μM desipramine. The binding of the test compound was measured in five different concentrations. After 60 min incubation at 4° C., binding reaction was terminated by filtering through Multiscreen GF/C (Millipore) presoaked in 0.5% polyethyleneimine in Vacuum Manifold Station, followed by 3 washes with ice-cold filtration buffer containing 50 mM Tris-HCl, 0.9% NaCl, pH 7.4.
Filter plates were dried at 60° C. for 1 hour and 30 μl of scintillation cocktail were added to each well before radioactivity reading.

Test [2] deals with Human α2δ-1 subunit of Cav2.2 calcium channel (Homo sapiens (Human), UniProt P54289). Kind of test: Binding Assay to Human α2δ-1 Subunit of Cav2.2 Calcium Channel. Conditions: human α2δ-1 enriched membranes, 15 nM [3H]-Gabapentin, read-out: Ki(nM) alpha2delta Hum. An outline of the steps:
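Radioligand filtration binding at the α2δ-1 subunit, test compound at five concentrations; nonspecific binding defined with 10 μM pregabalin. Incubated 60 min at 27 °C, stopped by GF/C filtration (0.5% PEI presoaked) with ice-cold 50 mM Tris-HCl pH 7.4 washes; bound radioactivity counted by scintillation.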

Where two headings read alike, the source gives them in different places. Where only a bound is given, the exact number is not on record here.

Human norepinephrine transporter (NET), sequence (P23975 whole entry): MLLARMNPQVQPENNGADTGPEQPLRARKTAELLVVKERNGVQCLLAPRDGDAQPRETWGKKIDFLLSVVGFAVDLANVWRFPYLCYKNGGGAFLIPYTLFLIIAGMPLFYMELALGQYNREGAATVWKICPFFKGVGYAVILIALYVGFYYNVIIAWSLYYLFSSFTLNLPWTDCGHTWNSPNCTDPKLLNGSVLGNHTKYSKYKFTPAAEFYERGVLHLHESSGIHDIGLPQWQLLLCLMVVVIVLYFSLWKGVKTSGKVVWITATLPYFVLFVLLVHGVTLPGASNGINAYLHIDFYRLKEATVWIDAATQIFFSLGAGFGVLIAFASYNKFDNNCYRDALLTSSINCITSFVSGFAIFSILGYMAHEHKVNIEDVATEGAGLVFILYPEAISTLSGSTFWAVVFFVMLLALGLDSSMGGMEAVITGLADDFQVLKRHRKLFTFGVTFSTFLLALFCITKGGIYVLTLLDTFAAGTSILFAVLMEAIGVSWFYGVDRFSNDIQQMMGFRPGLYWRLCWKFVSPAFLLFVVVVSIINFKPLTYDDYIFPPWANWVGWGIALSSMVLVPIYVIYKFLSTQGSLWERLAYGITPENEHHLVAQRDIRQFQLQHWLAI
Human α2δ-1 subunit of Cav2.2 calcium channel, sequence (P54289 25-1103): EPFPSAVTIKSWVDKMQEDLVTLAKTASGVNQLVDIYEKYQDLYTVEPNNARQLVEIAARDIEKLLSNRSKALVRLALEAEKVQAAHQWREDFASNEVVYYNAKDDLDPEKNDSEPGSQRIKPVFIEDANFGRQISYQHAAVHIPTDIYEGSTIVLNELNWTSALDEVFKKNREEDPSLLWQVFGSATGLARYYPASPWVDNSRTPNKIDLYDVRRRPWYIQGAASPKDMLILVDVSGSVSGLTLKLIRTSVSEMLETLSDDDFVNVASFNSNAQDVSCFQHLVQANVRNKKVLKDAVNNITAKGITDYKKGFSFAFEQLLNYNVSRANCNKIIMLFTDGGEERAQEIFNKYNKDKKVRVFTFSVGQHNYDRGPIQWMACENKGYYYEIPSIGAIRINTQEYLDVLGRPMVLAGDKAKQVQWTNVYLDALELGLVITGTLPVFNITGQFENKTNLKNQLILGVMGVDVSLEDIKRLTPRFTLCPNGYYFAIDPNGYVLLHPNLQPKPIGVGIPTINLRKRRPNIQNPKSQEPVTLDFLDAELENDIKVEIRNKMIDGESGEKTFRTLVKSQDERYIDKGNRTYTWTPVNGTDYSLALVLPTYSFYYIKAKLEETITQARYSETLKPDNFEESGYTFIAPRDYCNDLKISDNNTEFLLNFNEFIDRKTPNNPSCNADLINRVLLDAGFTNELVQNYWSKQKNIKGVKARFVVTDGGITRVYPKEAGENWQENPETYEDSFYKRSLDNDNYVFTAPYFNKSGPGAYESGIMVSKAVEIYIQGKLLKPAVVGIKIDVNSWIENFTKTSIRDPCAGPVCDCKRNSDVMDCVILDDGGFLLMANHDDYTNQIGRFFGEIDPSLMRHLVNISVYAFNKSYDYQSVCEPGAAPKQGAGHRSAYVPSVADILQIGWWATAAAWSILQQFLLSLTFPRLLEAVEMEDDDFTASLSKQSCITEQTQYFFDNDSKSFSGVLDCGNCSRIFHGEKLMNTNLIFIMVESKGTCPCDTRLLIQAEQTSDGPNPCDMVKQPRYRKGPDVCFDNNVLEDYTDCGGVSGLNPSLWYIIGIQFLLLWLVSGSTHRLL

For `CNCC[C@H](Oc1cccc(N2CCN(C)c3nc(N)ccc3C2=O)c1)c1cccs1` [Example 83, (S)-8-amino-1-methyl-4-(3-(3-(methylamino)-1-(thiophen-2-yl)propoxy)phenyl)-1,2,3,4-tetrahydro-5H-pyrido[2,3-e][1,4]diazepin-5-one], the Ki lay in the range of 100 to 500 nM in test [1]; 100 to 500 nM in test [2] (Table 1); 100 to 500 nM in test [2] (Table 2, dual compounds).
`CCNc1ccc2c(n1)N(C)CCN(Cc1ccc(O[C@@H](CCNC)c3cccs3)cc1)C2=O` [Example 92, (S)-8-(ethylamino)-1-methyl-4-(4-(3-(methylamino)-1-(thiophen-2-yl)propoxy)benzyl)-1,2,3,4-tetrahydro-5H-pyrido[2,3-e][1,4]diazepin-5-one]: the Ki in test [1] is under 100 nM; in test [2] (Table 1), 100 to 500 nM; in test [2] (Table 2, dual compounds) it was 100 to 500 nM.
`CNCC[C@H](Oc1ccc(CN2CCN(C)c3ncccc3C2=O)c(Cl)c1)c1cccs1` [Example 126, (S)-4-(2-chloro-4-(3-(methylamino)-1-(thiophen-2-yl)propoxy)benzyl)-1-methyl-1,2,3,4-tetrahydro-5H-pyrido[2,3-e][1,4]diazepin-5-one]: the Ki in test [1] is under 100 nM; in test [2] (Table 1), under 100 nM; in test [2] (Table 2, dual compounds), under 100 nM.
Consider `CCNc1ccc2c(n1)N(C)CCN(c1cccc(COC(CCNC)c3ccccc3)c1)C2=O` (stereo not drawn) [Example 29, 8-(Ethylamino)-1-methyl-4-(3-((3-(methylamino)-1-phenylpropoxy)methyl)phenyl)-1,2,3,4-tetrahydro-5H-pyrido[2,3-e][1,4]diazepin-5-one], for which the Ki in test [1] lay in the range of 500 to 1000 nM; in test [2] (Table 1), 500 to 3000 nM; in test [2] (Table 2, dual compounds), 500 to 3000 nM.
For `CNCC[C@H](Oc1cccc(N2CCN(C(C)C)CCC2=O)c1)c1cccs1` [Example 66, (S)-1-isopropyl-4-(3-(3-(methylamino)-1-(thiophen-2-yl)propoxy)phenyl)-1,4-diazepan-5-one], the Ki fell in the range of 100 to 500 nM in test [1]; 500 to 3000 nM in test [2] (Table 1); 500 to 3000 nM in test [2] (Table 2, dual compounds).
With `CNCC[C@H](Oc1ccc(CN2CCCn3nc(OC)cc3C2=O)c(F)c1)c1ccccc1` [Example 144, (S)-5-(2-fluoro-4-(3-(methylamino)-1-phenylpropoxy)benzyl)-2-methoxy-5,6,7,8-tetrahydro-4H-pyrazolo[1,5-a][1,4]diazepin-4-one], the Ki in test [1] was under 100 nM; in test [2] (Table 1) it was 100 to 500 nM; in test [2] (Table 2, dual compounds), 100 to 500 nM.
In the case of `CNCC[C@H](Oc1cc(F)cc(N2CCN(C)c3ncccc3C2=O)c1)c1cccs1` [Example 120, (S)-4-(3-fluoro-5-(3-(methylamino)-1-(thiophen-2-yl)propoxy)phenyl)-1-methyl-1,2,3,4-tetrahydro-5H-pyrido[2,3-e][1,4]diazepin-5-one], the Ki was under 100 nM in test [1]; under 100 nM in test [2] (Table 1); under 100 nM in test [2] (Table 2, dual compounds).
As for `CNCC[C@H](Oc1ccc(CN2CCN(C)c3nc(N)ccc3C2=O)cc1)c1cccs1` [Example 103, (S)-8-amino-1-methyl-4-(4-(3-(methylamino)-1-(thiophen-2-yl)propoxy)benzyl)-1,2,3,4-tetrahydro-5H-pyrido[2,3-e][1,4]diazepin-5-one], the Ki was under 100 nM in test [1]; under 100 nM in test [2] (Table 1); under 100 nM in test [2] (Table 2, dual compounds).
With `CNCC[C@H](Oc1cccc(N2CCN(C)c3nc(C)ccc3C2=O)c1)c1ccsc1` [Example 80, (S)-1,8-dimethyl-4-(3-(3-(methylamino)-1-(thiophen-3-yl)propoxy)phenyl)-1,2,3,4-tetrahydro-5H-pyrido[2,3-e][1,4]diazepin-5-one], the Ki was under 100 nM in test [1]; 100 to 500 nM in test [2] (Table 1); 100 to 500 nM in test [2] (Table 2, dual compounds).
Take `CNCC[C@H](Oc1ccc(CN2CCN(C)c3ncccc3C2=O)c(Cl)c1)c1ccccc1` [Example 141, (S)-(2-chloro-4-(3-(methylamino)-1-phenylpropoxy)benzyl)-1-methyl-1,2,3,4-telrahydro-5H-pyrido[2,3-e][1,4]diazepin-5-one]: the Ki in test [1] is under 100 nM; in test [2] (Table 1) it was under 100 nM; in test [2] (Table 2, dual compounds), under 100 nM.
With `CNCC[C@H](Oc1ccc(CN2CCN(C)c3nc(N)ccc3C2=O)c(Cl)c1)c1ccccc1` [Example 138, (S)-8-amino-4-(2-chloro-4-(3-(methylamino)-1-phenylpropoxy)benzyl)-1-methyl-1,2,3,4-tetrahydro-5H-pyrido[2,3-e][1,4]diazepin-5-one], the Ki in test [1] was under 100 nM; in test [2] (Table 1), under 100 nM; in test [2] (Table 2, dual compounds) it was under 100 nM.
For `CNCCC(Oc1ccc(CN2CCN(C)c3nc(C)ccc3C2=O)cc1)c1cccs1` (stereo not drawn) [Example 100, 1,8-Dimethyl-4-(4-(3-(methylamino)-1-(thiophen-2-yl)propoxy)benzyl)~ 1,2,3,4-tetrahydro-5H-pyrido[2,3-e][1,4]diazepin-5-one], the Ki is 500 to 1000 nM in test [1]; 100 to 500 nM in test [2] (Table 1); 100 to 500 nM in test [2] (Table 2, dual compounds).
Consider `CNCCC(OCc1cccc(N2CCN(C)c3ccccc3C2)c1)c1ccccc1` (stereo not drawn) [Example 7, N-methyl-3-((3-(1-methyl-1,2,3,5-tetrahydro-4H-benzo[e][1,4]diazepin-4-yl)benzyl)oxy)-3-phenylpropan-1-amine], for which the Ki in test [1] was in the range of 500 to 1000 nM; in test [2] (Table 1), 500 to 3000 nM; in test [2] (Table 2, dual compounds) it was 500 to 3000 nM.
As to `CNCCC(Oc1ccc(CN2CCN(C)c3ncccc3C2=O)cc1)c1cccs1` (stereo not drawn) [Example 99, 1-Methyl-4-(4-(3-(methylamino)-1-(thiophen-2-yl)propoxy)benzyl)-1,2,3,4-tetrahydro-5H-pyrido[2,3-e][1,4]diazepin-5-one], the Ki in test [1] was under 100 nM; in test [2] (Table 1), under 100 nM; in test [2] (Table 2, dual compounds), under 100 nM.
Regarding `CNCC[C@H](Oc1ccc(CN2CCN(C)c3cccnc3C2=O)cc1)c1cccs1` [Example 97, (S)-1-methyl-4-(4-(3-(methylamino)-1-(thiophen-2-yl)propoxy)benzyl)-1,2,3,4-tetrahydro-5H-pyrido[3,2-e][1,4]diazepin-6-one], the Ki fell in the range of 100 to 500 nM in test [1]; 500 to 3000 nM in test [2] (Table 1); 500 to 3000 nM in test [2] (Table 2, dual compounds).
`CNCC[C@H](Oc1ccc(CN2CCN(C)c3cnc(OC)cc3C2=O)c(F)c1)c1ccccc1` [Example 140, (S)-4-(2-fluoro-4-(3-(methylamino)-1-phenylpropoxy)benzyl)-7-methoxy-1-methyl-1,2,3,4-tetrahydro-5H-pyrido[3,4-e][1,4]diazepin-5-one]: the Ki was under 100 nM in test [1]; under 100 nM in test [2] (Table 1); under 100 nM in test [2] (Table 2, dual compounds).
Regarding `CNCC[C@H](Oc1cccc(N2CCN(C(C)C)CCC2=O)c1)c1ccsc1` [Example 77, (S)-1-isopropyl-4-(3-(3-(methylamino)-1-(thiophen-3-yl)propoxy)phenyl)-1,4-diazepan-5-one], the Ki was in the range of 100 to 500 nM in test [1]; 100 to 500 nM in test [2] (Table 1); 100 to 500 nM in test [2] (Table 2, dual compounds).
On to `CNCC[C@H](Oc1ccc(CN2CCN(C)c3ncc(F)cc3C2=O)c(F)c1)c1ccccc1` [Example 143, (S)-7-fluoro-4-(2-fluoro-4-(3-(methylamino)-1-phenylpropoxy)benzyl)-1-methyl-1,2,3,4-tetrahydro-5H-pyrido[2,3-e][1,4]diazepin-5-one], for which the Ki in test [1] was under 100 nM; in test [2] (Table 1) it was 100 to 500 nM; in test [2] (Table 2, dual compounds) it was 100 to 500 nM.
In the case of `CNCCC(Oc1ccc(CN2CCN(C)c3ncccc3C2=O)cc1)c1cccc(F)c1` (stereo not drawn) [Example 117, 4-(4-(1-(3-Fluorophenyl)-3-(methylamino)propoxy)benzyl)-1-methyl-1,2,3,4-tetrahydro-5H-pyrido[2,3-e][1,4]diazepin-5-one], the Ki in test [1] was under 100 nM; in test [2] (Table 1), 100 to 500 nM; in test [2] (Table 2, dual compounds) it was 100 to 500 nM.
For the molecule `CNCCC(OCc1cccc(N2CCN(C)CCC2=O)c1)c1cccs1` (stereo not drawn) [Example 84, 1-Methyl-4-(3-((3-(methylamino)-1-(thiophen-2-yl)propoxy)methyl)phenyl)-1,4-diazepan-5-one], the Ki in test [1] lay within 100 to 500 nM; in test [2] (Table 1) it was 500 to 3000 nM; in test [2] (Table 2, dual compounds) it was 500 to 3000 nM.
Consider `CNCCC(Oc1cc(F)cc(N2CCN(C)c3ncccc3C2=O)c1)c1cccc(F)c1` (stereo not drawn) [Example 121, 4-(3-Fluoro-5-(1-(3-fluorophenyl)-3-(methylamino)propoxy)phenyl)-1-methyl-1,2,3,4-tetrahydro-5H-pyrido[2,3-e][1,4]diazepin-5-one], for which the Ki was under 100 nM in test [1]; under 100 nM in test [2] (Table 1); under 100 nM in test [2] (Table 2, dual compounds).
As to `CNCC[C@H](Oc1ccc(CN2CCN(C)c3nc(N)ccc3C2=O)c(F)c1)c1ccccc1` [Example 137, (S)-8-amino-4-(2-fluoro-4-(3-(methylamino)-1-phenylpropoxy)benzyl)-1-methyl-1,2,3,4-tetrahydro-5H-pyrido[2,3-e][1,4]diazepin-5-one], the Ki in test [1] is under 100 nM; in test [2] (Table 1) it was 100 to 500 nM; in test [2] (Table 2, dual compounds), 100 to 500 nM.
On to `CNCC[C@H](Oc1ccc(CN2CCCn3nc(OC)cc3C2=O)c(C)c1)c1cccs1` [Example 134, (S)-2-methoxy-5-(2-methyl-4-(3-(methylamino)-1-(thiophen-2-yl)propoxy)benzyl)-5,6,7,8-tetrahydro-4H-pyrazolo[1,5-a][1,4]diazepin-4-one], for which the Ki was under 100 nM in test [1]; under 100 nM in test [2] (Table 1); under 100 nM in test [2] (Table 2, dual compounds).
